Data: US20210100777A1, “HEAT SHOCK PROTEIN (HSP) INHIBITION AND MONITORING EFFECTIVENESS THEREOF” (H. LEE MOFFITT CANCER CENTER AND RESEARCH INSTITUTE, INC., priority 2013, published 2021)
Entries after “also recorded” stand apart in the source; their conditions may differ.

How the values were obtained:
[1] = system: FOXO3a in M229R and 1205LuR cells; experiment: Immunofluorescent staining; assay type: cell-based; details: 48 hours; XL888 300 nM, GDC-0941 3 μM
Procedure: Immunofluorescent staining. M229R and 1205LuR cells were seeded at 50% confluency onto glass coverslips in a 12 well plate and allowed to adhere overnight. […] Fixed cells were separately stained by incubating overnight with rabbit anti-BIM or anti-FOXO3a antibodies followed by staining with secondary anti-rabbit AF488. Cells were then mounted onto slides with ProLong Gold Antifade containing DAPI (Invitrogen) and imaged with a Leica confocal microscope equipped with a 40x oil immersion lens.

[2] = system: M229R xenografts; experiment: Xenograft experiment; assay type: in vivo, BALB SCID mice; details: 100 mg/kg, PO, 3× week, 15 days
Procedure: (§1) Xenograft experiments. BALB SCID mice (The Jackson Laboratory, Bar Harbor, Me.) were subcutaneously injected with 2.5×10^6 cells per mouse (resuspended in 111 μL L-15 media, 10 mM HEPES, 37.5 μL Matrigel). Tumors were grown to approximately 100 mm^3 prior to dosing. Mice were treated with either 100 mg XL888/kg (n=5) or an equivalent volume of vehicle (10 mM HCl), 3 times per week by oral gavage. Mouse weights and tumor volumes (L×W2/2) were measured 3 times per week. Upon completion of the experiment, vehicle and drug treated tumor biopsies were processed for LC-MRM analysis (as above).

[3] = system: matched pairs of vemurafenib naïve and resistant melanoma cell lines and melanoma cell lines with intrinsic resistance; experiment: Growth inhibition, MTT assay; assay type: cell-based
Procedure: Growth inhibition. Cells were plated at a density of 2.5×10^4 cells per ml and left to grow overnight before being treated with increasing concentrations of vemurafenib or XL888. After 72 hours, the levels of growth inhibition were examined using the MTT assay (Smalley et al., Br. J. Cancer 96:445-9 (2007)). […] Vemurafenib and XL888 were dissolved in 100% DMSO and stored at −20° C. as a 10 mM solution.
Statistical analysis of GI50 values. Triplicate experiments were performed for each cell line under each drug treatment. To estimate the IC50 values for each cell line for each treatment, a 4-parameter Hill equation was used to model the nonlinear sigmoid relationship between the drug concentration and % cell survival. Briefly,
where x is the drug concentration, y is the % survival, ε is the error term. The four parameters in the model to estimate are: 1) the control-level effect (E); 2) the background-level effect (B); 3) the median effect concentration (GI50); and 4) the strength of the inhibition (m). The constraint of non-negative minimum background effect (B) is imposed so the model is biologically meaningful. Levenberg-Marquardt algorithm for nonlinear least squares was used to fit the model and estimate all four parameters for each cell line under each treatment. Estimated concentration at 50% cell survival, i.e., IC50, is estimated using the plugged-in parameters after model fitting. Note that when the control and background effects are 100% and 0%, respectively, the estimated GI50 and IC50 values would be identical. To compare the estimated IC50 values between the resistance and naïve paired of cell lines, after log transformation, a paired t-test was performed for each drug.

[4] = system: intratumoral HSP70; experiment: LC-MRM analysis of xenograft samples; assay type: in vivo, BALB SCID mice; details: 15-days of treatment, 100 mg/kg
Procedure: Liquid chromatography, multiple reaction monitoring mass (LC-MRM) spectrometry (LC MRM) analysis. LC-MRM was performed as described in (Remily-Wood et al., Proteomics Clin. App. 5:383-96 (2011)). Protein expression was determined using the ratio of peak area of the native peptide to corresponding internal standard; normalization of tissue results was performed using GAPDH to control for cellularity (Table 9). Data were then normalized to the pretreatment (cell lines) or vehicle controls (tissue) and plotted to show the changes in expression after drug treatment.
as §1

[5] = system: vemurafenib sensitive and naïve cell lines; experiment: Cell cycle analysis, propidium iodide flow cytometry; assay type: cell-based; details: 300 nM, 24 hours
Procedure: FIGS. 15A, 15B, 15C, 15D, 15E, 15F, and 15G show the HSP90 inhibitor XL888 blocks the growth and survival of melanoma cell lines with diverse mechanisms of vemurafenib resistance. FIGS. 15A and 15B are graphs showing growth (%) of matched pairs of vemurafenib naïve and resistant melanoma cell lines and melanoma cell lines with intrinsic resistance. In FIG. 15A, cells were treated with increasing concentrations of vemurafenib (1 nM-10 μM: 72 hrs) before being subject to the MTT assay. […] FIGS. 15C to 15E are bar graphs showing the cell cycle effects of XL888 (300 nM: 24 hours) upon vemurafenib sensitive and naïve cell lines. Cells were fixed, stained with propidium iodide and distributions analyzed by flow cytometry. FIG. 15F-G are bar graphs showing that XL888 induced apoptosis in every model of acquired vemurafenib resistance tested. Cells were treated for either 72 or 144 hours with XL888 (300 nM) followed by Annexin-V. Apoptosis was measured by flow cytometry.

[6] = system: HSP90 client and apoptosis proteins in vemurafenib-resistant melanoma cell lines; experiment: Western blotting; assay type: cell-based
Excerpt: Western blotting. Proteins were extracted and blotted for as described previously (Smalley et al., Br. J. Cancer 96:445-9 (2007)). […] The antibodies to IGF1R, PDGFRβ, ARAF, CRAF, phospho-AKT Ser473, total AKT, phospho-ERK, total ERK, cyclin D1, phospho-S6, total S6, phospho-BIM (Ser69), total BIM, HSP70 and MCL-1 were from Cell Signaling Technology (Beverly, Mass.). Anti-26S was purchased from Abcam (Cambridge, Mass.), and the antibody against COT was from Santa Cruz Biotechnology (Santa Cruz, Calif.).

CC[C@@H](C)Nc1cc(C(=O)N[C@@H]2C[C@H]3CC[C@@H](C2)N3c2ccc(C(=O)C3CC3)cn2)c(C)cc1C(N)=O [XL888, 5-((R)-sec-butylamino)-N1-((1R,3s,5S)-8-(5-(cyclopropanecarbonyl)pyridin-2-yl)-8-azabicyclo[3.2.1]octan-3-yl)-2-methylterephthalamide]
nuclear accumulation of FOXO3a [1]: highly efficient at increasing nuclear accumulation of FOXO3a
regression of established M229R xenografts [2]: significantly induce the regression; also recorded: significant levels of tumor regression
growth of the cell lines ([3]; 1 nM-10 μM, 72 hours, MTT): dose dependent decreases in the growth of all the cell lines
difference in growth inhibition / IC50 between naïve and resistant pairs of cell lines ([3]; M229/M229R, M249/M249R, WM164/WM164R, 1205Lu/1205LuR, paired t-test): no significant difference in IC50 values
increase in intratumoral HSP70 expression compared to controls [4]: 8.6 fold
cell cycle effect ([5]; WM164, M229, M229R, M249, M249R, 1205Lu, WM39): G1-phase cell cycle arrest
cell cycle effect ([5]; WM164R, 1205LuR, RPMI 7951): G2/M phase cell cycle arrest
26S proteasome, Western blot ([6]; 300 nM, 48 hours): partly degrade the 26S proteasome
BIM phosphorylation at Ser69 ([6]; 300 nM, 48 hours, all cell lines tested apart from M249R): decreased BIM phosphorylation at Ser69
client protein degradation and signaling ([6]; 300 nM, 48 hours, all cell lines with acquired BRAF inhibitor resistance): degradation of IGF1R, PDGFRβ, ARAF, CRAF and cyclin D1 and the inhibition of AKT, ERK and S6 signaling
BIM expression ([6]; 300 nM, 48 hours, entire cell line panel): increased BIM expression across the entire cell line panel
HSP70 expression, Western blot ([6]; 300 nM, 48 hours, every cell line evaluated): increases in HSP70 expression
expression of Mcl-1, Western blot ([6]; 300 nM, 48 hours, resistance through PDGFRβ, COT overexpression and two unknown mechanisms): marked decrease in the expression of Mcl-1
COT and cyclin D1 expression ([6]; intrinsically vemurafenib-resistant RPMI7951 and WM39, respectively): degrade both COT and cyclin D1
